In paper PMC4414724 (Chemico-biological interactions, 2015):
Where two headings read alike, the source gives them in different places.

Assays:
[1] = molecular target: rat liver alcohol dehydrogenase (Rattus norvegicus, UniProt P06757); experiment: Oxidation of alcohols by isolated rat liver alcohol dehydrogenase
[2] = 83 mM potassium phosphate, 40 mM KCl, pH 7.3, 37 °C, 0.5 mM NAD+
[3] = calculated from kinetic constants with Michaelis-Menten equation for 5 mM alcohol
[4] = from inhibition by 1 mmole/kg 4-methylpyrazole
[5] = observed rate without inhibitors minus the rate with 1 mmole/kg 4-methylpyrazole
[6] = secondary alcohols, doses of 5–10 mmole/kg
[7] = rats fasted 24 h, dose mmole/kg: 2-propanol 17, 2-propanol-d7 15

rat liver alcohol dehydrogenase, sequence (P06757 2-376 limits assumed): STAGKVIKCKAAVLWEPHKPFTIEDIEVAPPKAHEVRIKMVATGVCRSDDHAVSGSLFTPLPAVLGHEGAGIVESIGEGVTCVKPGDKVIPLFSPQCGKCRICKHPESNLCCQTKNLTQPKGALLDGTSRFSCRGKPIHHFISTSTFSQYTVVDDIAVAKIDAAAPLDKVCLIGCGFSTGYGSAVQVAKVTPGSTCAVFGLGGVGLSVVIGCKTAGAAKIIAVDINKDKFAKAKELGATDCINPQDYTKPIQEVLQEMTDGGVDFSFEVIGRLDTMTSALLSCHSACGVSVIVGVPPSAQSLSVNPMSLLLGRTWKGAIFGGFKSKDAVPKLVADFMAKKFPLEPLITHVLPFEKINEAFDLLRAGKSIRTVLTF

For `O=C1CCCCC1` [Cyclohexanone], the “10^4 k1 (first order, alcohol to ketone)” value (male, rat, in vivo, ip) was 176 ± 13 min^−1, the “10^4 k2 (first order, elimination of ketone)” value (male, rat, in vivo, ip) was 67 ± 3 min^−1 and the r (male, rat, in vivo, ip) was 0.53 mL/g.
For `CCCCO` [1-Butanol, 1-butanol], the Km [1, 2] was 0.14 ± 0.03 mM, the “V rel (Vmax relative to ethanol as substrate)” value [1, 2] was 1.3 ± 0.1 and the “in vitro v rel” value [1, 3] was 1.3. For the same molecule, the Vrel/K ([1]; pH 7.3, 37 °C, 0.5 mM NAD+) was 9.3, the “%ADH (estimated percentage of elimination due to ADH)” value [4] was 56% and the “in vivo rate of elimination” value (rat, in vivo) was 3.2 ± 0.4 mmol/kg/h.
In the case of `OCCCCO` [1,4-Butanediol, 1,4-butanediol], the “in vitro v rel” value [1] is reported as 0.52, the “V rel (Vmax relative to ethanol as substrate)” value ([1]; pH 7.3) is reported as 1.5 ± 0.3 and the Vrel/K ([1]; pH 7.3) is reported as 0.16. The “Rate due to ADH” value (male, rat, in vivo) was 5.8, the “in vivo rate of elimination” value (male, rat, in vivo) was 6.7 ± 0.1 mmol/kg/h and the “r (fraction of body weight accessible to the alcohol)” value (male, rat, in vivo, ip) was 1.3 ± 0.2 mL/g. For the same molecule, the “%ADH (estimated percentage of elimination due to ADH)” value (rat, in vivo) was 86% and the “kinetics of elimination in rats (order)” value (rat, in vivo) was “zero-order kinetics”.
For `CCC(O)CC` [3-Pentanol, 3-pentanol], the “V rel (Vmax relative to ethanol as substrate)” value [1, 2] was 0.69 ± 0.03, the “in vitro v rel” value [1, 3] was 0.35 and the Vrel/K ([1]; pH 7.3, 37 °C, 0.5 mM NAD+) was 0.14. The “%ADH (estimated percentage of elimination due to ADH)” value [4] was 90%, the “Rate due to ADH” value [5] was 3.6 and the “kinetics of elimination in rats (order)” value [6] was “first order kinetics”.
With `CC(C)O` [2-Propanol-d7, 2-propanol-d7] the Km ([1]; 83 mM potassium phosphate, 40 mM KCl, pH 7.3, 37 °C, 0.5 mM NAD+, listed as 2-propanol-d7) was 83 ± 15 mM.
With `CC(C)CO` [2-Methyl-1-propanol, 2-methyl-1-propanol] the Km [1, 2] was 0.19 ± 0.04 mM, the “V rel (Vmax relative to ethanol as substrate)” value [1, 2] was 0.80 ± 0.04 and the “in vitro v rel” value [1, 3] was 0.77. The Vrel/K ([1]; pH 7.3, 37 °C, 0.5 mM NAD+) was 4.2, the “%ADH (estimated percentage of elimination due to ADH)” value [4] was 66% and the “in vivo rate of elimination” value (rat, in vivo) was 3.8 ± 0.5 mmol/kg/h.
In the case of `[2H]C([2H])([2H])C([2H])(O)C([2H])([2H])[2H]` [2-Propanol-d7, 2-propanol-d7], the “V rel (Vmax relative to ethanol as substrate)” value [1, 2] is reported as 0.20 ± 0.02, the “in vitro v rel” value [1, 3] is reported as 0.011 and the Vrel/K ([1]; pH 7.3, 37 °C, 0.5 mM NAD+) is reported as 0.0024. For the same molecule, the “10^4 k1 (first order, alcohol to ketone)” value (rat, in vivo) was 18 ± 2 min^−1, the “10^4 k2 (first order, elimination of ketone)” value (rat, in vivo) was 13 ± 2 min^−1 and the “k2 (zero order, elimination of ketone)” value (rat, in vivo) was 0.44 ± 0.06 mmol/kg/h. The “10^4 k1 (first order, alcohol to ketone)” value (rat, in vivo, ip) was 25 ± 2 min^−1, the “10^4 k2 (first order, elimination of ketone)” value (rat, in vivo, ip) was 19 ± 4 min^−1 and the “k2 (zero order, elimination of ketone)” value (rat, in vivo, ip) was 0.59 ± 0.08 mmol/kg/h. The r [7] was 0.70 ± 0.03 mL/g and the “kinetics of elimination in rats (order)” value [6] was “first order kinetics”.
For `CC(C)O` [2-Propanol, 2-propanol], the “V rel (Vmax relative to ethanol as substrate)” value [1, 2] was 0.40 ± 0.02, the Km ([1]; 83 mM potassium phosphate, 40 mM KCl, pH 7.3, 37 °C, 0.5 mM NAD+, listed as 2-propanol) was 36 ± 7 mM and the “in vitro v rel” value [1, 3] was 0.049. The Vrel/K ([1]; pH 7.3, 37 °C, 0.5 mM NAD+) was 0.011, the “inhibition of the rate of elimination” value (by 1 mmole/kg of 4-methylpyrazole) was 55% and the “k2 (zero order, elimination of ketone)” value (fed rats, 10 mmole/kg isobutyramide (IBA), dose 10 mmole/kg) was 0.44 mmol/kg/h. The “%ADH (estimated percentage of elimination due to ADH)” value [4] was 55%, the “10^4 k1 (first order, alcohol to ketone)” value (rat, in vivo) was 42 ± 4 min^−1 and the “10^4 k2 (first order, elimination of ketone)” value (rat, in vivo) was 14.3 ± 0.6 min^−1. The Km (rat, in vivo) was 58 ± 20 mM, the “Vmax, Michaelis-Menten fit of elimination in vivo” value (rat, in vivo) was 0.38 ± 0.10 mM/min and the r (rat, in vivo) was 0.75 ± 0.01 mL/g. The “k2 (zero order, elimination of ketone)” value [7] was 0.64 ± 0.02 mmol/kg/h.
With `CC(C)CCO` [3-Methyl-1-butanol, 3-methyl-1-butanol] the “V rel (Vmax relative to ethanol as substrate)” value [1, 2] was 0.54 ± 0.02, the “in vitro v rel” value [1, 3] was 0.53 and the Vrel/K ([1]; pH 7.3) was 13. The “%ADH (estimated percentage of elimination due to ADH)” value [4] was 61% and the “in vivo rate of elimination” value (male, Sprague-Dawley, rat, in vivo) was 4.6 ± 0.8 mmol/kg/h.
In the case of `CCCO` [1-Propanol, 1-propanol], the Km [1, 2] is reported as 0.22 ± 0.03 mM, the “V rel (Vmax relative to ethanol as substrate)” value [1, 2] is reported as 0.95 ± 0.07 and the “in vitro v rel” value [1, 3] is reported as 0.91. The Vrel/K ([1]; pH 7.3, 37 °C, 0.5 mM NAD+) was 4.3, the “%ADH (estimated percentage of elimination due to ADH)” value [4] was 81% and the “Rate due to ADH” value (rat, in vivo) was 4.3. The “in vivo rate of elimination” value (rat, in vivo) was 5.3 ± 0.5 mmol/kg/h, the “kinetics of elimination in rats (order)” value (rat, in vivo) was “zero-order kinetics” and the “r (fraction of body weight accessible to the alcohol)” value (rat, in vivo, ip) was 0.67 ± 0.09 mL/g.
For `CCC(C)O` (stereo not drawn) [2-Butanol, 2-butanol], the Km [1, 2] was 12 ± 6 mM, the “V rel (Vmax relative to ethanol as substrate)” value [1, 2] was 0.48 ± 0.03 and the “in vitro v rel” value [1, 3] was 0.14. For the same molecule, the Vrel/K ([1]; pH 7.3, 37 °C, 0.5 mM NAD+) was 0.04, the “%ADH (estimated percentage of elimination due to ADH)” value [4] was 68% and the “Rate due to ADH” value (rat, in vivo) was 1.7. For the same molecule, the “in vivo rate of elimination” value (rat, in vivo) was 2.5 ± 0.4 mmol/kg/h, the “kinetics of elimination in rats (order)” value (rat, in vivo) was “first order kinetics” and the “10^4 k1 (first order, alcohol to ketone)” value (rat, in vivo, ip) was 112 ± 17 min^−1. For the same molecule, the “10^4 k2 (first order, elimination of ketone)” value (rat, in vivo, ip) was 37 ± 4 min^−1, the “k2 (zero order, elimination of ketone)” value (rat, in vivo, ip) was 1.1 ± 0.2 mmol/kg/h and the r (rat, in vivo, ip) was 0.74 ± 0.08 mL/g.
In the case of `OCc1ccccc1` [Benzyl alcohol, benzyl alcohol], the Ki [1] is reported as 27 mM, the “V rel (Vmax relative to ethanol as substrate)” value [1, 2] is reported as 0.47 ± 0.03 and the Vrel/K ([1]; pH 7.3, 37 °C, 0.5 mM NAD+) is reported as 13.
In the case of `c1cn[nH]c1` [pyrazole, reference compound], the “Inhibition of the ADH reactions” value ([1]; 10 mM pyrazole) is reported as “almost totally inhibited”.
In the case of `OCCCO` [1,3-Propanediol, 1,3-propanediol], the Km [1, 2] is reported as 24 ± 2 mM, the “V rel (Vmax relative to ethanol as substrate)” value [1, 2] is reported as 0.75 ± 0.04 and the “in vitro v rel” value [1, 3] is reported as 0.13. The Vrel/K ([1]; pH 7.3, 37 °C, 0.5 mM NAD+) was 0.031, the “in vivo rate of elimination” value (data for zero order elimination, rats without inhibitors) was 2.7 ± 0.8 mmol/kg/h and the “%ADH (estimated percentage of elimination due to ADH)” value [4] was 63%. The “Rate due to ADH” value [5] was 1.7 and the “kinetics of elimination in rats (order)” value (primary alcohols and diols, doses of 5–20 mmole/kg) was “zero-order kinetics”.
In the case of `OC1CCCCC1` [Cyclohexanol, cyclohexanol], the “in vitro v rel” value [1, 3] is reported as 0.90, the “%ADH (estimated percentage of elimination due to ADH)” value [4] is reported as 74% and the “Rate due to ADH” value (male, rat, in vivo) is reported as 3.2. For the same molecule, the “in vivo rate of elimination” value (male, rat, in vivo) was 4.3 ± 1.5 mmol/kg/h, the “10^4 k1 (first order, alcohol to ketone)” value (male, rat, in vivo, ip) was 229 ± 70 min^−1 and the “10^4 k2 (first order, elimination of ketone)” value (male, rat, in vivo, ip) was 50 ± 6 min^−1. For the same molecule, the r (male, rat, in vivo, ip) was 0.75 ± 0.21 mL/g.
With `OC1CCCC1` [Cyclopentanol, cyclopentanol] the “V rel (Vmax relative to ethanol as substrate)” value [1, 2] was 0.72 ± 0.04, the “in vitro v rel” value [1, 3] was 0.68 and the Vrel/K ([1]; pH 7.3, 37 °C, 0.5 mM NAD+) was 2.2. For the same molecule, the “%ADH (estimated percentage of elimination due to ADH)” value [4] was 64%, the “Rate due to ADH” value [5] was 3.0 and the “kinetics of elimination in rats (order)” value [6] was “first order kinetics”.
In the case of `OCCO` [1,2-Ethanediol, 1,2-ethanediol], the “V rel (Vmax relative to ethanol as substrate)” value ([1]; pH 7.3) is reported as 0.99 ± 0.25, the Vrel/K ([1]; pH 7.3) is reported as 0.0013 and the “r (fraction of body weight accessible to the alcohol)” value (rat, in vivo, ip) is reported as 0.72 ± 0.08 mL/g.
In the case of `CCC(C)=O` [2-Butanone], the “10^4 k2 (first order, elimination of ketone)” value (rat, in vivo, ip) is reported as 31 ± 2 min^−1, the “k2 (zero order, elimination of ketone)” value (rat, in vivo, ip) is reported as 1.3 mmol/kg/h and the r (rat, in vivo, ip) is reported as 0.81 mL/g.
